Test results published in patent EP4741383A1, “COMPOUND AND USE THEREOF AS ANTI-CANCER DRUG” (Tyligand Bioscience (Shanghai) Limited, priority 2023, dated 2025).

Legend:
[1] = target: T1, SHP2 enzyme (catalytic domain, amino acid sequence 224-528) (Homo sapiens, UniProt Q06124); assay: SHP2 enzyme inhibition assay (DiFMUP substrate, fluorescence); type: biochemical; details: for IC50: SHP2 catalytic domain, DiFMUP substrate, 30 min pre-incubation, read-out: S HP2 I C50; for SHP2 IC50 times lower than control compound 11a-1: relative to 11a-1, IC50 = 0.108 µM
T1 construct: purchased GenScript
T1 sequence (Q06124 224-528): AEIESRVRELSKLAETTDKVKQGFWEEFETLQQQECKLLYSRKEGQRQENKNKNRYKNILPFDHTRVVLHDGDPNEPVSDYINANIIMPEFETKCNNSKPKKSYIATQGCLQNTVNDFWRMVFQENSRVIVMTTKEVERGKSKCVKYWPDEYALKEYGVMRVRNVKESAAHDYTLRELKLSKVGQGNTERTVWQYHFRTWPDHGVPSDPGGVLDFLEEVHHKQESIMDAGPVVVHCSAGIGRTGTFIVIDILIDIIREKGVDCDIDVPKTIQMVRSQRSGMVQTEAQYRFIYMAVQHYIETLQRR
Method: This experiment evaluates the inhibitory effect of the test compounds on SHP2 enzyme activity by detecting the reaction between the human recombinant protein SHP2 enzyme and the substrate.
The stock solutions of the reaction buffer components were thawed and mixed homogeneously at room temperature, to prepare the reaction buffer (55 mM HEPES pH = 7.2 (Sigma, Cat. No. #PHR1428), 100 mM NaCl (Beyotime, Cat. No. #ST374, 5 M solution), 0.5 mM EDTA (Beyotime, Cat. No. #ST066), 1 mM DL-Dithiothreitol (DTT) (Sigma, Cat. No. #D9779), 0.002% BSA (Solarbio, Cat. No. #A8010), 0.001% Brij35 (Brij® L23 solution (Brij35) (Sigma, Cat. No. #B4184)). The SHP2 enzyme (catalytic domain, amino acid sequence 224-528, expressed and purified by GenScript) was thawed slowly on ice. 1 µL of this solution (1.37 mg/mL) was added to 386 µL of the reaction buffer to dilute it to 100 nM. Then, 120 µL of the 100 nM SHP2 enzyme solution was added to 2880 µL of reaction buffer to prepare a 4 nM SHP2 enzyme working solution. The test compounds and the specific inhibitor of SHP2 (11a-1, used as a positive control, Zeng, L. et al., J. Med. Chem. 2014, 57, 6594-6609) were prepared as 10 mM DMSO solutions. 10 µL of the 10 mM compound solution was mixed with 20 µL of DMSO solution, and then serially diluted 3-fold, resulting in 10 concentrations. 1 µL of the serially diluted solution was mixed with 99 µL of reaction buffer to obtain a 10-fold diluted compound working solution.
A 96-well black half-area microplate (Greiner, catalog #675076) was used. 25 µL of 4 nM SHP2 enzyme working solution and 5 µL of 10x compound working solution were added to each well and incubated at room temperature for 30 minutes. 15 µL of DiFMUP substrate (Thermo Fisher Scientific, catalog #D6567) was added to 2985 µL of reaction buffer to prepare a 50 µM substrate working solution. After incubation of the compounds and SHP2 enzyme, 20 µL of the 50 µM substrate working solution was added to each well and incubated at room temperature for 5 minutes. The plate was then read on a multi-mode microplate reader (BioTek, Synergy H1) at 340 nm/450 nm fluorescence.
Data were analyzed using GraphPad Prism 9.0 software. A non-linear S-curve regression dose-response-inhibition equation was used to fit the data and generate the dose-response curve, from which the IC50 value was calculated. [formula]

[2] = system: KYSE520; assay: CellTiter-Glo cell proliferation inhibition, KYSE520; type: cell-based, human; details: Homo sapiens, KYSE-520; KYSE520 cells, 120 hours, CellTiter-Glo
Excerpt: In this study, the CellTiter-Glo® Luminescent Cell Viability Assay kit from Promega was used to evaluate the inhibitory effects of the disclosed compounds on the proliferation of cell lines KYSE520 (a human esophageal squamous cell carcinoma cell line dependent on SHP2 for growth), MeWo (a human malignant melanoma cell line), and MV4-11 (an RTK-mutant human acute monocytic leukemia cell line).
KYSE520 cells (Nanjing Kebaio Biotechnology Co., Ltd., Catalog #CBP60658) were thawed by rapidly shaking the cryovial in a 37 °C water bath to thaw within 1 minute. The thawed cell suspension was mixed homogeneously with RPMI 1640 medium (HyClone, Catalog #SH30027.01) containing 10% FBS (ExCell, Catalog #FND500), centrifuged at 1000 rpm for 5 minutes, and the supernatant was discarded. The cell pellet was resuspended in 5 mL of complete culture medium (RPMI 1640 medium containing 10% FBS) and placed in a cell culture flask with 25 cm^2 of bottom area, then cultured in a cell culture incubator at 37 °C, 95% humidity, and 5% CO2. Cell passaging was performed when the cell confluence reached approximately 80%. During cell passaging, the old culture medium was discarded, the cells were washed once with DPBS (Thermo Fisher, Catalog #14190-144), and 1 mL of trypsin (Thermo Fisher, Catalog #25200072) was added to digest the cells. When the cells dispersed into single cells and detached from the bottom of the culture flask, 3 mL of fresh complete culture medium was added to stop the digestion. After gently pipetting the cell suspension, 1/5 of the cell suspension was retained, 5 mL of fresh complete culture medium was added, and after mixing, the cells were placed in a cell culture flask for further culture. Cell plating was performed when the cell confluence again reached approximately 80%. During cell plating, following the cell passaging method, 1/5 of the cell suspension was retained for continued culture, and the remaining 4/5 of the cell suspension was placed in a 15 mL centrifuge tube. Cell viability was determined using the trypan blue exclusion method to ensure that cell viability was above 90%. A cell suspension with a density of 2.22 × 10^4 cells/mL was prepared using complete culture medium, and 135 µL of the cell suspension was added to a 96-well transparent flat-bottom black-walled cell culture plate (Greiner, Catalog #655090), resulting in a cell density of 3000 viable cells per well. A control group containing only complete culture medium without cells and compounds (i.e., culture medium control) and a control group containing cells but no compound (i.e., cell control) were set up. The cell plates were incubated overnight in a cell culture incubator. First, a 10 mM stock solution of the compound (Example compound and positive control compound 11a-1) in DMSO (Damas-beta, catalog #75927R) was serially diluted 3-fold to the 9th concentration, and a 10th concentration containing only DMSO (without compound) was also prepared as a control. Then, the DMSO solutions containing different concentrations of the compound were diluted 100-fold with complete culture medium, resulting in a 1% DMSO concentration in each solution. Finally, 15 µL of each solution was added to the corresponding wells of the cell culture plate, resulting in a starting compound concentration of 10 µM, with a 3-fold dilution between adjacent concentrations, and a final DMSO concentration of 0.1% in the cell culture plate. The cell plates were then incubated in the cell culture incubator for another 120 hours.
For endpoint detection, CellTiter-Glo reagent (Promega, catalog number #G7573, CellTiter-Glo® Luminescent Cell Viability Assay Kit) was melt and each cell plate was moved to room temperature for equilibration for 30 minutes. 75 µL (KYSE520 cells) or 50 µL (MeWo cells and MV 4-11 cells) of CellTiter-Glo was added to each well of the corresponding cell plate. The plates were shaken on a track-mounted shaker for 2 minutes to fully lyse the cells. […]

With `CC1(n2c(-c3ccc(NC(=O)C(=O)Nc4ccc(N5CC[C@H](CO)C5)cc4)cc3)cc3cc(F)c(-c4nnn[nH]4)cc32)CCC1` [Example 13] as the compound, how does the IC50 [1] read?
Its IC50 is 66 nM.

What about the IC50 [2] of the same compound?
Its IC50 is 0.182 µM.

What does the source list for `O=C(Nc1ccc(-c2cc3cc(F)c(-c4nnn[nH]4)cc3n2C2CCC2)cc1)C(=O)Nc1ccc(N2CCC(F)(CO)C2)cc1` (stereo not drawn) [Example 17]?
IC50 [1]: 120 nM; IC50 [2]: 0.185 µM

Which results are given for `CC(C)(O)CC1CCN(c2ccc(NC(=O)C(=O)Nc3ccc(-c4cc5cc(F)c(-c6nnn[nH]6)cc5n4C4CCC4)cc3)cc2)CC1` [Example 27]?
IC50 [1]: 111 nM; IC50 [2]: 0.17 µM

Which IC50 [1] does the source give for `C[C@@H](O)C1CCN(c2ccc(NC(=O)C(=O)Nc3ccc(-c4cc5cc(F)c(-c6nnn[nH]6)cc5n4C4(C)CCC4)cc3)cc2)CC1` [Example 30] here?
The IC50 was 86 nM.

What about the IC50 [2] of the same compound?
Its IC50 is 0.192 µM.

`CCC(O)C1CCN(c2ccc(NC(=O)C(=O)Nc3ccc(-c4cc5cc(F)c(-c6nnn[nH]6)cc5n4C4CCC4)cc3)cc2)CC1` (stereo not drawn) [Example 31] was tested. Which IC50 [1] did it give?
The IC50 was 88 nM.

And the IC50 [2]?
Its IC50 is 0.116 µM.

Which IC50 [1] does the source give for `O=C(Nc1ccc(-c2cc3cc(F)c(-c4nnn[nH]4)cc3n2C2CCC2)cc1)C(=O)Nc1ccc(N2CCC(C(O)C(F)(F)F)CC2)cc1` (stereo not drawn) [Example 32] here?
Its IC50 is 61 nM.

What about the IC50 [2] of the same compound?
Its IC50 is 0.182 µM.

How did the IC50 [1] turn out when `CC(C)(O)C1CCN(c2ccc(NC(=O)C(=O)Nc3ccc(-c4cc5cc(F)c(-c6nnn[nH]6)cc5n4Cc4ccccc4)cc3)cc2)CC1` [Example 36] was run?
The IC50 was 52 nM.

What about the IC50 [2] of the same compound?
The IC50 was 0.12 µM.

How did the IC50 [1] turn out when `CC1(n2c(-c3ccc(NC(=O)C(=O)Nc4ccc(N5CC6(CCOCC6)C5)cc4)cc3)cc3cc(F)c(-c4nnn[nH]4)cc32)CCC1` [Example 58] was run?
The IC50 was 31 nM.

And the “SHP2 IC50 times lower than control compound 11a-1” value [1]?
Its value is 3-4 times.

And the IC50 [2]?
The IC50 was 0.125 µM.

With `CC1(n2c(-c3ccc(NC(=O)C(=O)Nc4ccc(N5CCC6(CCCOC6)CC5)cc4)cc3)cc3cc(F)c(-c4nnn[nH]4)cc32)CCC1` [Example 75] as the compound, how does the IC50 [1] read?
The IC50 was 34 nM.

And the “SHP2 IC50 times lower than control compound 11a-1” value [1]?
Its value is 3-4 times.

And the IC50 [2]?
The IC50 was 0.103 µM.

`CC1(n2c(-c3ccc(NC(=O)C(=O)Nc4ccc(N5CC6(CCC(O)CC6)C5)cc4)cc3)cc3cc(F)c(-c4nnn[nH]4)cc32)CCC1` [Example 82] was tested. Which IC50 [1] did it give?
Its IC50 is 30 nM.

What about the “SHP2 IC50 times lower than control compound 11a-1” value [1] of the same compound?
Its value is 3-4 times.

And the IC50 [2]?
The IC50 was 0.097 µM.

Which results are given for `CC1(n2c(-c3ccc(NC(=O)C(=O)Nc4ccc(N5CC6(CCC(CO)CC6)C5)cc4)cc3)cc3cc(F)c(-c4nnn[nH]4)cc32)CCC1` [Example 86]?
IC50 [1]: 64 nM; IC50 [2]: 0.158 µM

With `CC1(O)CC2(CCN(c3ccc(NC(=O)C(=O)Nc4ccc(-c5cc6cc(F)c(-c7nnn[nH]7)cc6n5C5CCC5)cc4)cc3)C2)C1` (stereo not drawn) [Example 91] as the compound, how does the IC50 [1] read?
The IC50 was 93 nM.

And the IC50 [2]?
The IC50 was 0.101 µM.

`CC(C)(O)C1CC2(CCN(c3ccc(NC(=O)C(=O)Nc4ccc(-c5cc6cc(F)c(-c7nnn[nH]7)cc6n5C5CCC5)cc4)cc3)CC2)C1` [Example 98] was tested. Which IC50 [1] did it give?
Its IC50 is 83 nM.

And the IC50 [2]?
The IC50 was 0.195 µM.

What does the source list for `CC(C)(O)C1CC2(CCN(c3ccc(NC(=O)C(=O)Nc4ccc(-c5cc6cc(F)c(-c7nnn[nH]7)cc6n5C5(C)CCC5)cc4)cc3)CC2)C1` [Example 99]?
IC50 [1]: 77 nM; IC50 [2]: 0.17 µM

Which results are given for `CC1(n2c(-c3ccc(NC(=O)C(=O)Nc4ccc(N5CCC6(CCC(O)C6)CC5)cc4)cc3)cc3cc(F)c(-c4nnn[nH]4)cc32)CC1` (stereo not drawn) [Example 102]?
IC50 [1]: 49 nM; IC50 [2]: 0.116 µM

Which results are given for `CC1(O)CCC2(CCN(c3ccc(NC(=O)C(=O)Nc4ccc(-c5cc6cc(F)c(-c7nnn[nH]7)cc6n5C5CCC5)cc4)cc3)CC2)C1` (stereo not drawn) [Example 104]?
IC50 [1]: 70 nM; IC50 [2]: 0.125 µM

Which results are given for `O=C(Nc1ccc(-c2cc3cc(F)c(-c4nnn[nH]4)cc3n2C2CCC2)cc1)C(=O)Nc1ccc(N2CCC3(CCC(CO)C3)CC2)cc1` (stereo not drawn) [Example 106]?
IC50 [1]: 103 nM; IC50 [2]: 0.11 µM

How did the IC50 [1] turn out when `CC1(n2c(-c3ccc(NC(=O)C(=O)Nc4ccc(N5CCC6(CCC(CO)C6)CC5)cc4)cc3)cc3cc(F)c(-c4nnn[nH]4)cc32)CCC1` (stereo not drawn) [Example 107] was run?
The IC50 was 138 nM.

And the IC50 [2]?
Its IC50 is 0.101 µM.

With `CC1(n2c(-c3ccc(NC(=O)C(=O)Nc4ccc(N5CCC6(CCC(CO)CC6)CC5)cc4)cc3)cc3cc(F)c(-c4nnn[nH]4)cc32)CCC1` [Example 113] as the compound, how does the IC50 [1] read?
The IC50 was 114 nM.

And the IC50 [2]?
Its IC50 is 0.116 µM.

`CC1(n2c(-c3ccc(NC(=O)C(=O)Nc4ccc(N5CC6COCC6C5)cc4)cc3)cc3cc(F)c(-c4nnn[nH]4)cc32)CCC1` (stereo not drawn) [Example 115] was tested. Which IC50 [1] did it give?
The IC50 was 36 nM.

And the “SHP2 IC50 times lower than control compound 11a-1” value [1]?
Its value is 3-4 times.

And the IC50 [2]?
The IC50 was 0.11 µM.

What does the source list for `O=C(Nc1ccc(-c2cc3cc(F)c(-c4nnn[nH]4)cc3n2C2CCC2)cc1)C(=O)Nc1ccc(N2CC3CC(CO)CC3C2)cc1` (stereo not drawn) [Example 119]?
IC50 [1]: 55 nM; IC50 [2]: 0.105 µM

For `CC1(n2c(-c3ccc(NC(=O)C(=O)Nc4ccc(N5CC6CC(CO)CC6C5)cc4)cc3)cc3cc(F)c(-c4nnn[nH]4)cc32)CCC1` (stereo not drawn) [Example 120], which IC50 [1] is on record?
Its IC50 is 55 nM.

What about the IC50 [2] of the same compound?
Its IC50 is 0.115 µM.
